Measurements: publication PMC9807592, “New thioxothiazolidinyl-acetamides derivatives as potent urease inhibitors: design, synthesis, in vitro inhibition, and molecular dynamic simulation” (Scientific Reports, 2023)
Values after ≈ are worked out from the molar mass of the structure shown. Read-outs that look alike come from different tables or passages of the source.

Assays:
urease [1] = target: T1, urease (Canavalia ensiformis, UniProt P07374); assay: biochemical; format: biochemical
Procedure: The assay was performed exactly according to our previous report. Briefly, 850 μL of urea and 15 μL urease (0.135 units dissolved in PBS, pH 7.4) were added to 100 μL of the synthesized derivatives at different concentrations. After 30 min, to 100 μL of the incubated solution, 500 μL solution I (5.0 g phenol and 25.0 mg sodium nitroprusside in 500 mL water) was added followed by the addition of 500 μL of solution II (2.5 g sodium hydroxide, 4.2 mL sodium hypochlorite, and 5% chlorine in 500 mL water) which was further incubated at 37 °C for 30 min. The absorbance was determined by measuring indophenols at 625 nm. Thiourea was used as the standard inhibitor for urease. The IC50 values for all synthesized compounds were calculated using GraphPad Prism software (GraphPad Software, Inc., San Diego, CA)[20].

urease [2] = target: T1, urease; assay: Enzyme kinetic study of urease inhibition (Lineweaver–Burk); format: biochemical
Procedure: A Lineweaver–Burk plot was generated to identify the type of inhibition, and the Michaelis–Menten constant (Km) value was determined from the plot between the reciprocal of the substrate concentration (1/[S]) and reciprocal of enzyme rate (1/V) over various inhibitor concentrations. The experimental inhibitor constant (Ki) value was constructed by secondary plots of the inhibitor concentration [I] versus Km.

[3] = system: urease-positive clinical isolate of P. vulgaris; assay: Urease inhibitory activity against P. vulgaris (Christensen's urea medium, 560 nm); format: cell-based; settings: Proteus vulgaris; for IC50: 24 h at 37 °C, read at 560 nm
Procedure: To assess the inhibition of urease activity by synthetic compounds, Christensen’s urea.
medium containing urea and phenol red (pH indicator) was used for the preparation of two-fold serial dilutions of compounds in 96-well microtiter plates. Cell suspension of a urease-positive clinical isolate of P. vulgaris was prepared in a urea medium and added to each well. The turbidity of bacterial suspension was adjusted to 0.5 McFarland using a spectrophotometer, and also, the density of inoculated suspension was 1 × 10^6 CFU/ml. The concentrations of compounds were in the range of 1–512 µg/ml.
Inoculated media without adding any compound was considered a positive control, while uninoculated media were used as a negative control (blank). The anti-urease activity was assessed spectroscopically at 560 nm after 24 h incubation at 37 °C[14].

E. coli ATCC 25922 = assay: Antimicrobial activity, broth microdilution (CLSI); format: cell-based; settings: Escherichia coli, ATCC25922, read-out: MIC
Procedure: (§1) Then, 100 μL of each dilution was transferred into the well of a microtiter plate and inoculated with 100 μL of cell suspension with a final density of 1–5 × 10^3 CFU/ml for yeasts and 1–1.5 × 10^6 cells/ml for bacteria. Plates were incubated at proper temperature overnight, and the minimum inhibitory concentration (MIC) of compounds was determined as the lowest concentration that prevented visible growth of tested microorganisms compared with the growth in the control wells (wells without tested compounds). […] All experiments were performed in duplicate[30],[31].

S. aureus ATCC 25923 = assay: Antimicrobial activity, broth microdilution (CLSI); format: cell-based; settings: Staphylococcus aureus, ATCC25923
Procedure: as §1

[4] = system: clinical isolate of P. vulgaris; assay: Antimicrobial activity, broth microdilution (CLSI); format: cell-based; settings: Proteus vulgaris
Procedure: as §1

C. albicans ATCC 10261 = assay: Antimicrobial activity, broth microdilution (CLSI); format: cell-based; settings: Candida albicans, ATCC10261
Procedure: The antimicrobial activity of designed compounds was investigated using broth microdilution.
Briefly, twofold serial dilutions of the compounds were prepared in Mueller–Hinton Broth (MHB, HiMedia) for bacterial strains and RPMI-1640 (Sigma-Aldrich) for yeast strain (Ranging 1–512 µg/ml). Then, 100 μL of each dilution was transferred into the well of a microtiter plate and inoculated with 100 μL of cell suspension with a final density of 1–5 × 10^3 CFU/ml for yeasts and 1–1.5 × 10^6 cells/ml for bacteria. Plates were incubated at proper temperature overnight, and the minimum inhibitory concentration (MIC) of compounds was determined as the lowest concentration that prevented visible growth of tested microorganisms compared with the growth in the control wells (wells without tested compounds). Moreover, the minimum bactericidal/fungicidal concentration (MBC/MFC) of compounds was determined by transferring the 10 µl of clear wells into the agar media. Standard antibacterial and antifungal agents (Ciprofloxacin and Fluconazole) were evaluated. All experiments were performed in duplicate[30],[31].

[5] = In vitro cytotoxic evaluation (MTT assay); format: cell-based; settings: human, MOLT-4 cells
Procedure: MOLT-4 (human acute lymphoblastic leukemia) cells were cultures in RPMI-1640 medium supplemented with 10% heat-inactivated fetal bovine serum. Cell viability was measured by the MTT assay. MOLT-4 cells were seeded into 96-well micro-culture plates. After 24 h, the culture medium was replaced with a medium containing different concentrations of newly synthesized derivatives. Control wells were supplemented with the same volume of growth medium not containing any drugs. Cells were then incubated at 37 °C for 72 h. At the end of the exposure time, the medium was removed and MTT solution of 0.5 mg/ml was added to each well. The plates were incubated at 37 °C for 4 h, after which DMSO was added to each well to solubilize the formed formazan crystals, and the absorbance of each well was read with a microplate reader at 570 nm.

urease [6] = settings: read-out: IC50, urease inhibition, cited from earlier work
[7] = mean ± SEM, at least three experiments, read-out: IC50 (μM), urease inhibitory activity

T1 sequence (P07374 whole entry, looked up): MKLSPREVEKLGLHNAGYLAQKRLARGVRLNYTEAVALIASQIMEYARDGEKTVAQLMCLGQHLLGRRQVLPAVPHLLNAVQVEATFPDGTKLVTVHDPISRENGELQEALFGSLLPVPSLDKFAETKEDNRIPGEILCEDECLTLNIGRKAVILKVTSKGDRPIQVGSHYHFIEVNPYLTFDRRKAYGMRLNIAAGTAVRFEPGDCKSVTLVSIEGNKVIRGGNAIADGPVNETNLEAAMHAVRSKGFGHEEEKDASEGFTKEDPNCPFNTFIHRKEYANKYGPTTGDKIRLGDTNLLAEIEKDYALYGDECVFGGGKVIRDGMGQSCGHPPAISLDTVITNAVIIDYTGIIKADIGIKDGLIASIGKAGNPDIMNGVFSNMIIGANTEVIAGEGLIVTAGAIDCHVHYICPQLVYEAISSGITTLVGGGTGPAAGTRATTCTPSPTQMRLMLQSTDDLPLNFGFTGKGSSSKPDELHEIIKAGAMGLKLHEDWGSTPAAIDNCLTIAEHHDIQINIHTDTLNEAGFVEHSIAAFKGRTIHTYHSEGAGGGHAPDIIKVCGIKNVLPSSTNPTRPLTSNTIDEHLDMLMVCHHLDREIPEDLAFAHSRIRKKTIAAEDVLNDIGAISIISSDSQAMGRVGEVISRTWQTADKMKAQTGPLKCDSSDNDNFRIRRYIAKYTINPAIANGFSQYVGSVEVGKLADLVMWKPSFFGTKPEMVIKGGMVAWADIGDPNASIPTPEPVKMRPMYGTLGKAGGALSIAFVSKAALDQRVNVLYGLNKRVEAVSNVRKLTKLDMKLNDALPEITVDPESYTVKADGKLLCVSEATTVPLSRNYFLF

CCCCN1C(=O)[C@@H](CC(=O)NCc2ccccc2)SC1=S (racemic) [Compound 6i, N-benzyl-2-(3-butyl-4-oxo-2-thioxothiazolidin-5-yl)acetamide]
IC50 (urease [1]): 1.47 ± 0.11 µM
Ki (urease [2]): 1170 nM
type of inhibition (urease [2]; Lineweaver–Burk plot, 6i at 0, 0.5, 1 and 2 µM): competitive
IC50 [3]: 17.8 ± 3.75 µg/mL (≈ 52.8 µM)
MIC (E. coli ATCC 25922): > 512 µg/mL
MIC (S. aureus ATCC 25923): > 512 µg/mL
MIC [4]: > 512 µg/mL
MIC (C. albicans ATCC 10261): > 512 µg/mL
viability at 72 h, 100 µM [5]: 97.8 ± 2.5%
melting point: 172 to 174 °C

O=C(O)[C@@H]1CSCN1 [A]
IC50 (urease [6]; thiazolidine carboxylic acid lead): 3030 ± 98 nM

COc1cc(/C=N\N=C2\NC(=O)CS2)c(OC)cc1Br [C]
IC50 (urease [6]; 4-thiazolidinone analogs): 1730 ± 1000 nM

O=C(CC1SC(=S)N(Cc2ccccc2)C1=O)NCc1ccccc1 (stereo not shown) [Compound 6a, N-benzyl-2-(3-benzyl-4-oxo-2-thioxothiazolidin-5-yl)acetamide]
IC50 (urease [1]): 2.22 ± 0.36 µM
MIC (E. coli ATCC 25922): > 512 µg/mL
MIC (S. aureus ATCC 25923): > 512 µg/mL
MIC [4]: > 512 µg/mL
MIC (C. albicans ATCC 10261): > 512 µg/mL
viability at 72 h, 100 µM [5]: 95.5 ± 2.7%
melting point: 168 to 170 °C

Cc1ccc(CNC(=O)CC2SC(=S)N(Cc3ccccc3)C2=O)cc1 (stereo not shown) [Compound 6b, 2-(3-benzyl-4-oxo-2-thioxothiazolidin-5-yl)-N-(4-methylbenzyl)acetamide]
IC50 (urease [1]): 4.02 ± 1.12 µM
MIC (E. coli ATCC 25922): > 512 µg/mL
MIC (S. aureus ATCC 25923): > 512 µg/mL
MIC [4]: > 512 µg/mL
MIC (C. albicans ATCC 10261): > 512 µg/mL
viability at 72 h, 100 µM [5]: 91.2 ± 4.2%
melting point: 167 to 169 °C

O=C(CC1SC(=S)N(Cc2ccccc2)C1=O)NCc1ccc(F)cc1 (stereo not shown) [Compound 6c, 2-(3-benzyl-4-oxo-2-thioxothiazolidin-5-yl)-N-(4-fluorobenzyl)acetamide]
IC50 (urease [1]): 2.15 ± 0.18 µM
MIC (E. coli ATCC 25922): > 512 µg/mL
MIC (S. aureus ATCC 25923): > 512 µg/mL
MIC [4]: > 512 µg/mL
MIC (C. albicans ATCC 10261): > 512 µg/mL
viability at 72 h, 100 µM [5]: 92.7 ± 3.6%
melting point: 169 to 171 °C

CCCNC(=O)CC1SC(=S)N(Cc2ccccc2)C1=O (stereo not shown) [Compound 6d, 2-(3-benzyl-4-oxo-2-thioxothiazolidin-5-yl)-N-propylacetamide]
IC50 (urease [1]): 1.85 ± 0.66 µM
IC50 [3]: 126 ± 8.65 µg/mL (≈ 390 µM)
MIC (E. coli ATCC 25922): > 512 µg/mL
MIC (S. aureus ATCC 25923): > 512 µg/mL
MIC [4]: > 512 µg/mL
MIC (C. albicans ATCC 10261): > 512 µg/mL
viability at 72 h, 100 µM [5]: 95.5 ± 3.2%
melting point: 165 to 167 °C

CCCCNC(=O)CC1SC(=S)N(Cc2ccccc2)C1=O (stereo not shown) [Compound 6e, 2-(3-benzyl-4-oxo-2-thioxothiazolidin-5-yl)-N-butylacetamide]
IC50 (urease [1]): 1.64 ± 0.45 µM
IC50 [3]: 15.3 ± 2.4 µg/mL (≈ 45.4 µM)
MIC (E. coli ATCC 25922): > 512 µg/mL
MIC (S. aureus ATCC 25923): > 512 µg/mL
MIC [4]: > 512 µg/mL
MIC (C. albicans ATCC 10261): > 512 µg/mL
viability at 72 h, 100 µM [5]: 91.7 ± 2.8%
melting point: 166 to 168 °C

CC(C)CNC(=O)CC1SC(=S)N(Cc2ccccc2)C1=O (stereo not shown) [Compound 6f, 2-(3-benzyl-4-oxo-2-thioxothiazolidin-5-yl)-N-isobutylacetamide]
IC50 (urease [1]): 1.59 ± 0.47 µM
IC50 [3]: 32.4 ± 5.26 µg/mL (≈ 96.2 µM)
MIC (E. coli ATCC 25922): > 512 µg/mL
MIC (S. aureus ATCC 25923): > 512 µg/mL
MIC [4]: > 512 µg/mL
MIC (C. albicans ATCC 10261): > 512 µg/mL
viability at 72 h, 100 µM [5]: 91.9 ± 1.3%
melting point: 164 to 166 °C

C=CCNC(=O)CC1SC(=S)N(Cc2ccccc2)C1=O (stereo not shown) [Compound 6g, N-allyl-2-(3-benzyl-4-oxo-2-thioxothiazolidin-5-yl)acetamide]
IC50 (urease [1]): 1.61 ± 0.5 µM
IC50 [3]: 61.7 ± 6.41 µg/mL (≈ 192 µM)
MIC (E. coli ATCC 25922): > 512 µg/mL
MIC (S. aureus ATCC 25923): > 512 µg/mL
MIC [4]: > 512 µg/mL
MIC (C. albicans ATCC 10261): > 512 µg/mL
viability at 72 h, 100 µM [5]: 91.6 ± 3.7%

O=C(CC1SC(=S)N(Cc2ccccc2)C1=O)NC1CCCC1 (stereo not shown) [Compound 6h, 2-(3-benzyl-4-oxo-2-thioxothiazolidin-5-yl)-N-cyclopentylacetamide]
IC50 (urease [1]): 1.86 ± 0.29 µM
IC50 [3]: ≥ 512 µg/mL
inhibition at 512 µg/mL ([3]; at 512 µg/ml): 48.5%
MIC (E. coli ATCC 25922): > 512 µg/mL
MIC (S. aureus ATCC 25923): > 512 µg/mL
MIC [4]: > 512 µg/mL
MIC (C. albicans ATCC 10261): > 512 µg/mL
viability at 72 h, 100 µM [5]: 95 ± 4.2%
melting point: 167 to 169 °C

CCCCN1C(=O)C(CC(=O)NCc2ccc(C)cc2)SC1=S (stereo not shown) [Compound 6j, 2-(3-butyl-4-oxo-2-thioxothiazolidin-5-yl)-N-(4-methylbenzyl)acetamide]
IC50 (urease [1]): 5.66 ± 0.79 µM
viability at 72 h, 100 µM [5]: 97.7 ± 4.6%
melting point: 174 to 176 °C

CCCCN1C(=O)C(CC(=O)NCC(C)C)SC1=S (stereo not shown) [Compound 6k, 2-(3-butyl-4-oxo-2-thioxothiazolidin-5-yl)-N-isobutylacetamide]
IC50 (urease [1]): 1.91 ± 0.57 µM
MIC (E. coli ATCC 25922): > 512 µg/mL
MIC (S. aureus ATCC 25923): > 512 µg/mL
MIC [4]: > 512 µg/mL
MIC (C. albicans ATCC 10261): > 512 µg/mL
viability at 72 h, 100 µM [5]: 98.5 ± 1.4%
melting point: 170 to 172 °C

CC(C)CN1C(=O)C(CC(=O)NCc2ccccc2)SC1=S (stereo not shown) [Compound 6l, N-benzyl-2-(3-isobutyl-4-oxo-2-thioxothiazolidin-5-yl)acetamide]
IC50 (urease [1]): 4.38 ± 0.61 µM
MIC (E. coli ATCC 25922): > 512 µg/mL
MIC (S. aureus ATCC 25923): > 512 µg/mL
MIC [4]: > 512 µg/mL
MIC (C. albicans ATCC 10261): > 512 µg/mL
viability at 72 h, 100 µM [5]: 93.6 ± 4.5%
melting point: 169 to 171 °C

Cc1ccc(CNC(=O)CC2SC(=S)N(CC(C)C)C2=O)cc1 (stereo not shown) [Compound 6m, 2-(3-isobutyl-4-oxo-2-thioxothiazolidin-5-yl)-N-(4-methylbenzyl)acetamide]
IC50 (urease [1]): 3.09 ± 1.08 µM
MIC (E. coli ATCC 25922): > 512 µg/mL
MIC (S. aureus ATCC 25923): > 512 µg/mL
MIC [4]: > 512 µg/mL
MIC (C. albicans ATCC 10261): > 512 µg/mL
viability at 72 h, 100 µM [5]: 97.7 ± 2.9%
melting point: 173 to 175 °C

N#Cc1ccc(C(=O)NN2C(=O)CSC2c2ccccc2O)cc1 (stereo not shown) [D]
IC50 (urease [6]; arylhydrazide Schiff base-thiazolidinones): 4100 ± 20 nM

COc1cccc2c1C(=O)c1c(O)c3c(c(O)c1C2=O)C[C@@](O)(C(=O)CO)C[C@@H]3O[C@H]1C[C@H](N)[C@H](O)[C@H](C)O1 [Doxorubicin, reference compound]
IC50 at 72 h ([5]; read-out: IC50 (µM), cytotoxicity): 12.7 ± 2.4 µM

OC(Cn1cncn1)(Cn1cncn1)c1ccc(F)cc1F [Fluconazole, reference compound]
MIC (C. albicans ATCC 10261): 4 µg/mL (≈ 13.1 µM)

NC(=O)NO [Hydroxyurea, reference compound]
IC50 (urease [1]; mean ± SEM, at least three experiments, listed as hydroxyurea, read-out: IC50 (μM), urease inhibitory activity): 100 µM
IC50 (urease [1]; [7]): 100 ± 2.5 µM

NC(N)=S [Thiourea, reference compound]
IC50 (urease [1]; [7]): 23.6 ± 0.84 µM
